# Reference: ChEMBL document CHEMBL1201862, “PubChem BioAssay data set” (2004)
#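 Cultured in 96-well plates, cells were exposed to test compound for 48 hours across five concentrations. At the GI50, growth is halved.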 Calls of active or inactive are those of the source. Rule as the data show it: active = GI50 up to about 1.1 µM and inactive = higher.
# Assays:
# Assay in all cases: DTP human tumour cell line panel, 48 h
# [1] = test system: CAKI-1
# [2] = test system: HL-60
# [3] = test system: HOP-62
# [4] = test system: IGROV-1
# [5] = test system: KM12
# [6] = test system: LOX IMVI
# [7] = test system: MOLT-4
# [8] = test system: NCI-H226
# [9] = test system: NCI-H23
# [10] = test system: NCI-H460
# [11] = test system: NCI-H522
# [12] = test system: PC-3
# [13] = test system: SF-295
# [14] = test system: SK-MEL-28
# [15] = test system: TK-10
# [16] = test system: UACC-62
# [17] = test system: A498
# [18] = test system: HCC 2998
# [19] = test system: RXF 393
# [20] = test system: DU-145
SMILES,GI50 [1],GI50 [2],GI50 [3],GI50 [4],GI50 [5],GI50 [6],GI50 [7],GI50 [8],GI50 [9],GI50 [10],GI50 [11],GI50 [12],GI50 [13],GI50 [14],GI50 [15],GI50 [16],GI50 [17],GI50 [18],GI50 [19],GI50 [20]
O=C(NCP(=O)(Oc1ccccc1)Oc1ccccc1)OCc1ccccc1,> 100 µM (inactive),> 100 µM (inactive),39.8 µM (inactive),> 100 µM (inactive),> 100 µM (inactive),> 100 µM (inactive),> 100 µM (inactive),> 100 µM (inactive),> 100 µM (inactive),> 100 µM (inactive),83.6 µM (inactive),43.9 µM (inactive),42.2 µM (inactive),> 100 µM (inactive),> 100 µM (inactive),62.8 µM (inactive),–,–,–,–
COc1cc2c(c(OC)c1OC)-c1ccc(SC)c(=O)cc1[C@@H](NCc1ccc(F)cc1)CC2,1.69 µM (inactive),0.1 µM (active),< 0.0075 µM (active),< 0.0075 µM (active),< 0.0075 µM (active),< 0.0075 µM (active),< 0.0075 µM (active),< 0.0075 µM (active),< 0.0075 µM (active),< 0.0075 µM (active),< 0.0075 µM (active),–,< 0.0075 µM (active),8.77 µM (inactive),12.3 µM (inactive),< 0.0075 µM (active),< 0.0075 µM (active),< 0.0075 µM (active),< 0.0075 µM (active),–
COc1cccc(Cc2cc(=O)c3ccc(C)nc3[nH]2)c1,> 100 µM (inactive),55.5 µM (inactive),> 100 µM (inactive),> 100 µM (inactive),> 100 µM (inactive),> 100 µM (inactive),41.3 µM (inactive),> 100 µM (inactive),> 100 µM (inactive),> 100 µM (inactive),13.2 µM (inactive),–,> 100 µM (inactive),> 100 µM (inactive),> 100 µM (inactive),> 100 µM (inactive),73.5 µM (inactive),–,> 100 µM (inactive),> 100 µM (inactive)
CCCCCCCCCCCCCCCCCC(CCCCCCCCCCCCCCCCC)OP(=O)(O)O,> 100 µM (inactive),> 100 µM (inactive),–,> 100 µM (inactive),> 100 µM (inactive),> 100 µM (inactive),> 100 µM (inactive),> 100 µM (inactive),> 100 µM (inactive),> 100 µM (inactive),> 100 µM (inactive),–,> 100 µM (inactive),> 100 µM (inactive),> 100 µM (inactive),> 100 µM (inactive),> 100 µM (inactive),> 100 µM (inactive),> 100 µM (inactive),–
CCOC(=O)N(c1ccccc1)c1cc(=O)n2ccccc2n1,> 100 µM (inactive),> 100 µM (inactive),> 100 µM (inactive),> 100 µM (inactive),> 100 µM (inactive),> 100 µM (inactive),> 100 µM (inactive),> 100 µM (inactive),> 100 µM (inactive),> 100 µM (inactive),–,–,> 100 µM (inactive),> 100 µM (inactive),> 100 µM (inactive),> 100 µM (inactive),> 100 µM (inactive),> 100 µM (inactive),38.9 µM (inactive),> 100 µM (inactive)
O=C1C=C(O)C(=Cc2c(O)cc(O)cc2O)C(O)=C1,> 100 µM (inactive),> 100 µM (inactive),> 100 µM (inactive),> 100 µM (inactive),> 100 µM (inactive),> 100 µM (inactive),> 100 µM (inactive),> 100 µM (inactive),> 100 µM (inactive),> 100 µM (inactive),> 100 µM (inactive),–,> 100 µM (inactive),–,> 100 µM (inactive),> 100 µM (inactive),> 100 µM (inactive),> 100 µM (inactive),> 100 µM (inactive),–
O=C1C/C(Br)=C\c2ccccc2-c2ccccc21,1.98 µM (inactive),1.71 µM (inactive),3.05 µM (inactive),3.1 µM (inactive),3.52 µM (inactive),0.869 µM (active),2.16 µM (inactive),2.66 µM (inactive),3.16 µM (inactive),2.86 µM (inactive),0.429 µM (active),–,4.98 µM (inactive),1.05 µM (active),4.78 µM (inactive),2.23 µM (inactive),8.51 µM (inactive),7.14 µM (inactive),1.43 µM (inactive),–
O=C(O)/C=C/c1ccc2c(c1)CC1(Cc3ccccc3C1)C2,–,37.5 µM (inactive),49.5 µM (inactive),56.4 µM (inactive),55.8 µM (inactive),38.1 µM (inactive),29.5 µM (inactive),33.7 µM (inactive),57 µM (inactive),–,54.5 µM (inactive),53.6 µM (inactive),36.1 µM (inactive),–,> 100 µM (inactive),> 100 µM (inactive),75.3 µM (inactive),93.8 µM (inactive),94 µM (inactive),–
O=C(CCC(=O)Nc1ccc(Cl)cc1)CC(=O)c1ccc2ccccc2c1,> 100 µM (inactive),> 100 µM (inactive),> 100 µM (inactive),> 100 µM (inactive),> 100 µM (inactive),> 100 µM (inactive),> 100 µM (inactive),> 100 µM (inactive),> 100 µM (inactive),> 100 µM (inactive),> 100 µM (inactive),–,> 100 µM (inactive),> 100 µM (inactive),> 100 µM (inactive),32.7 µM (inactive),> 100 µM (inactive),> 100 µM (inactive),> 100 µM (inactive),–
C1OC1CN1CCN(CC2CO2)CC1 (configuration not stated),26.7 µM (inactive),4.85 µM (inactive),24.2 µM (inactive),> 100 µM (inactive),> 100 µM (inactive),44.1 µM (inactive),3.28 µM (inactive),> 100 µM (inactive),22.1 µM (inactive),6.53 µM (inactive),> 100 µM (inactive),–,42 µM (inactive),> 100 µM (inactive),> 100 µM (inactive),8.87 µM (inactive),> 100 µM (inactive),> 100 µM (inactive),> 100 µM (inactive),–
CCOC(=O)C1N(S(=O)(=O)c2ccc(C)cc2)CCC12c1ccccc1NC2c1ccc(OC)c(OC)c1 (configuration not stated),> 100 µM (inactive),27.7 µM (inactive),> 100 µM (inactive),14.6 µM (inactive),> 100 µM (inactive),> 100 µM (inactive),–,> 100 µM (inactive),> 100 µM (inactive),> 100 µM (inactive),> 100 µM (inactive),–,> 100 µM (inactive),> 100 µM (inactive),> 100 µM (inactive),> 100 µM (inactive),> 100 µM (inactive),> 100 µM (inactive),> 100 µM (inactive),–
Fc1cccc2c1cc1ccc3cccc4ccc2c1c34,> 100 µM (inactive),> 100 µM (inactive),> 100 µM (inactive),> 100 µM (inactive),> 100 µM (inactive),> 100 µM (inactive),> 100 µM (inactive),> 100 µM (inactive),> 100 µM (inactive),–,> 100 µM (inactive),–,> 100 µM (inactive),> 100 µM (inactive),60.1 µM (inactive),> 100 µM (inactive),> 100 µM (inactive),> 100 µM (inactive),> 100 µM (inactive),–
COc1cccc(-c2cc(O)c3cc(NC(C)=O)ccc3n2)c1,62.1 µM (inactive),–,32.4 µM (inactive),27.2 µM (inactive),23.5 µM (inactive),22.5 µM (inactive),5.27 µM (inactive),–,26.8 µM (inactive),33 µM (inactive),5.11 µM (inactive),23.7 µM (inactive),–,33.2 µM (inactive),> 100 µM (inactive),17.4 µM (inactive),17 µM (inactive),> 100 µM (inactive),–,–
COc1cc(C(=O)O[C@H]2CCC3CCC2N3C)cc(OC)c1OC (some centres not stated),–,63.7 µM (inactive),> 100 µM (inactive),–,> 100 µM (inactive),> 100 µM (inactive),> 100 µM (inactive),> 100 µM (inactive),> 100 µM (inactive),> 100 µM (inactive),–,–,> 100 µM (inactive),> 100 µM (inactive),> 100 µM (inactive),–,36.3 µM (inactive),> 100 µM (inactive),> 100 µM (inactive),> 100 µM (inactive)
Oc1ccc(Oc2cc3c(cc2Oc2ccc(O)cc2)-c2nc-3nc3[nH]c(nc4nc(nc5[nH]c(n2)c2cc(Oc6ccc(O)cc6)c(Oc6ccc(O)cc6)cc52)-c2cc(Oc5ccc(O)cc5)c(Oc5ccc(O)cc5)cc2-4)c2cc(Oc4ccc(O)cc4)c(Oc4ccc(O)cc4)cc32)cc1,> 100 µM (inactive),–,> 100 µM (inactive),> 100 µM (inactive),> 100 µM (inactive),39.9 µM (inactive),> 100 µM (inactive),> 100 µM (inactive),> 100 µM (inactive),> 100 µM (inactive),> 100 µM (inactive),> 100 µM (inactive),37.8 µM (inactive),> 100 µM (inactive),> 100 µM (inactive),76 µM (inactive),–,> 100 µM (inactive),–,–
C#CCNC(=O)NCCCC(NC(C)=O)C(=O)NCc1ccccc1 (configuration not stated),> 100 µM (inactive),> 100 µM (inactive),> 100 µM (inactive),> 100 µM (inactive),> 100 µM (inactive),> 100 µM (inactive),> 100 µM (inactive),> 100 µM (inactive),> 100 µM (inactive),> 100 µM (inactive),> 100 µM (inactive),–,> 100 µM (inactive),> 100 µM (inactive),> 100 µM (inactive),> 100 µM (inactive),> 100 µM (inactive),> 100 µM (inactive),> 100 µM (inactive),–
